# Data reported in publication PMC4789278, “Pharmacological inhibition of LSD1 for the treatment of MLL-rearranged leukemia” (Journal of Hematology & Oncology, 2016).
# Where two headings read alike, the source gives them in different places.
# Assays:
# [1] = tested on: MV4-11 leukemia cells; assay: Antiproliferation assay (XTT), MV4-11; type: cell-based; conditions: Homo sapiens, MV4-11, 360 h; 15-day treatment; MLL-rearranged leukemia; read-out: MV4-11 EC50 (antiproliferative)
# Procedure: Next, these three compounds were tested for their cellular activity against proliferation of MV4-11 leukemia cells bearing MLL-AF4 fusion oncogene.
# (§1) These compounds were incubated with a panel of six human leukemia and solid tumor cell lines, including two MLL-rearranged leukemia cells MV4-11 and Molm-13 containing fusion oncogenes MLL-AF4 and -AF9, respectively. […] Also included in the studies are breast cancer MCF-7 and prostate cancer LNCaP cells.
# (§2) Proliferation inhibition assay for suspension leukemia cells was performed using an XTT assay kit (Roche) with our previously described method. Proliferation inhibition assay for solid tumor cell lines MCF-7 and LNCaP was performed using our previous described MTT assay. The antiproliferation EC50 values were determined by Prism, and the reported results were the mean values of at least three independent experiments.
# [2] = biological target: T1, recombinant human LSD1 (Homo sapiens, UniProt O60341); assay: LSD1 enzyme inhibition assay (HRP/Amplex red); type: biochemical; conditions: for Selectivity index for LSD1: LSD1 versus MAO-A and -B
# T1 construct: Human LSD1 catalytic domain (172-833) was cloned; made in house; host or cells: E. coli BL21-CodonPlus (Agilent)
# Procedure: The LSD1 inhibition assay was performed with the reaction rate (i.e., amount of the product H2O2, Additional file 1: Figure S2) being quantitatively determined by adding horseradish peroxidase (HRP) and a HRP fluorescence substrate Amplex red.
# Human LSD1 catalytic domain (172-833) was cloned and inserted into pGEX-KG vector. The correctness of insert was verified by sequencing. BL21-CodonPlus strain (Agilent) was transformed with the pGEX-KG-LSD1 plasmid and cultured at 37 °C in LB medium containing ampicillin (50 μg/mL) and chloramphenicol (34 μg/mL). Upon reaching an optical density of ~0.9 at 600 nm, LSD1 expression was induced by adding 0.2 mM isopropylthiogalactoside at 25 °C for 20 h. Cells were harvested, lysed, and centrifuged at 20,000 rpm for 20 min, and the supernatant was collected and subjected to an affinity column chromatography using the glutathione sepharose resin.
# The inhibition assay for the recombinant LSD1 was performed using a published protocol, with the reaction rate (i.e., amount of the product H2O2) being quantitatively determined by adding HRP and a HRP fluorescence substrate Amplex red. […] The total volume of the reaction mixture is 60 μL. After 20 min, 60-μL solution containing HRP (0.01 unit) and Amplex red (80 μM) was added and the fluorescence of each well was determined using a Beckman DTX-880 microplate reader (excitation at 535 and emission at 595 nm). Data were imported into Prism 5.0 (GraphPad), and the IC50 values were calculated by using the sigmoidal dose response curve fitting in the software. The reported IC50s were the mean values of at least three independent experiments.
# [3] = tested on: U937 leukemia cells; assay: Antiproliferation assay (XTT), U937; type: cell-based; conditions: Homo sapiens, U-937, 360 h; 15-day treatment; non-MLL leukemia cells; read-out: U937 EC50 (antiproliferative)
# Procedure: as §1, with “We next examined the spectrum of antitumor activity for compounds 1–4. These” for “These”, “cells. […]” for “cells.”
# as §2
# [4] = biological target: T2, human MAO-B (Homo sapiens, UniProt P27338); assay: MAO-B inhibition (MAO-Glo); type: biochemical
# T2 construct: purchased Sigma
# T2 sequence (P27338 1-520): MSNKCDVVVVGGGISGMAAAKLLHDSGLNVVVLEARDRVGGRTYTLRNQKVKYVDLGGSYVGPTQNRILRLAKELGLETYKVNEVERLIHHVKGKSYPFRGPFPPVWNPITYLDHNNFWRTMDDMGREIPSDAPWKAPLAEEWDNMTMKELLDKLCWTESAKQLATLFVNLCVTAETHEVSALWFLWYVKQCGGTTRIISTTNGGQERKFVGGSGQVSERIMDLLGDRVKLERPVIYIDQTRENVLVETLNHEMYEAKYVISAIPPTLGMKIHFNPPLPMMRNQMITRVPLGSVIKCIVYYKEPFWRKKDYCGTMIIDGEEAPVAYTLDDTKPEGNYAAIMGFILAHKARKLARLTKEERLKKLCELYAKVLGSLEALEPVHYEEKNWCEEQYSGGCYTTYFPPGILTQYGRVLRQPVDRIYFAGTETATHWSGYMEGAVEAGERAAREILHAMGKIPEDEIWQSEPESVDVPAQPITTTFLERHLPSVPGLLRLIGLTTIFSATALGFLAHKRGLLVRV
# Procedure: (§3) Because MAO-A and -B play important roles in the degradation of neurotransmitters (e.g., serotonin and dopamine) in the central nervous system, selective inhibition for LSD1 is highly desirable.
# (§4) Recombinant human MAO-A and -B were purchased from Sigma. The inhibitory activity was determined using MAO-Glo assay kit (Promega). In brief, following the manufacturer’s protocol, assays were performed in 384-well white plates (Corning) using MAO-A or -B (100 nM) with a final volume of 20 μL. Reactions were quenched after 60 min by adding reconstituted luciferin detection reagent (20 μL/well); 20 min after addition of the detection reagent, the luminescence of each well was measured using Beckman DTX-880 microplate reader. IC50 calculation was similar to that of LSD1.
# [5] = tested on: human primary leukemia cells from an AML patient with MLL-ENL fusion oncogene; assay: Colony-forming assay; type: cell-based; conditions: 336 h, colonies counted after 14 days, read-out: colony-forming ability EC50
# Procedure: Colony-forming assay using non-serum culture media represents a useful method to assess self-renewal capacity of stem-like cancer cells. The number of cell colonies formed in the assay reflects the proportion of stem-like cells in a given number of cancer cells. […] Human MLL-rearranged AML samples will be obtained from the Children’s Oncology Group (COG) Biopathology Center, in accordance with the IRB-approved protocol H-24170. The colony-forming assay was performed according to our previously published method. After 14 days, the colony number of each culture dish was counted and imported into Prism 5.0 and EC50 values were determined by using the sigmoidal dose response curve fitting in the software.
# [6] = tested on: prostate cancer LNCaP cells; assay: Antiproliferation assay (MTT), LNCaP; type: cell-based; conditions: Homo sapiens, 360 h, 15-day treatment, read-out: LNCaP EC50 (antiproliferative)
# Procedure: as §1, with “We next examined the spectrum of antitumor activity for compounds 1–4. These” for “These”, “cells. […]” for “cells.”
# as §2
# [7] = biological target: T3, human MAO-A (Homo sapiens, UniProt P21397); assay: MAO-A inhibition (MAO-Glo); type: biochemical; conditions: read-out: MAO-A IC50
# T3 construct: purchased Sigma
# T3 sequence (P21397 1-527): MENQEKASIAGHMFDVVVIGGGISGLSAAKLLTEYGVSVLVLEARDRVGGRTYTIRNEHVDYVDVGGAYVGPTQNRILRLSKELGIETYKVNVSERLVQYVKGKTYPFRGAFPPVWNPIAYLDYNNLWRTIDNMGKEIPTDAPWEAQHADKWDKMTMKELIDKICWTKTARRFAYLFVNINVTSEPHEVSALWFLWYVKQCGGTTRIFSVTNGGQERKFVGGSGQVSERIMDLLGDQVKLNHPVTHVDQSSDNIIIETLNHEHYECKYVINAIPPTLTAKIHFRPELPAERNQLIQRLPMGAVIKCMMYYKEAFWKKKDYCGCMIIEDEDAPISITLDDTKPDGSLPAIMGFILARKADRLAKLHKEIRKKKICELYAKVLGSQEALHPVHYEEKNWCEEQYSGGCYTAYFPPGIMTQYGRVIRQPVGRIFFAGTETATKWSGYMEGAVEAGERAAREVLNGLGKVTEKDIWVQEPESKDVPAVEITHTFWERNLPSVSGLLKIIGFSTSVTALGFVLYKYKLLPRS
# Procedure: as §3, with “The cyclopropylamine LSD1 inhibitors were generally derived from MAO-A/-B inhibitor tranylcypromine, an antidepression drug. Because” for “Because”
# as §4
# [8] = tested on: NB4 leukemia cells; assay: Antiproliferation assay (XTT), NB4; type: cell-based; conditions: Homo sapiens, 360 h; 15-day treatment; non-MLL leukemia cells; read-out: NB4 EC50 (antiproliferative)
# Procedure: as §1, with “We next examined the spectrum of antitumor activity for compounds 1–4. These” for “These”, “cells. […]” for “cells.”
# as §2
# [9] = tested on: breast cancer MCF-7 cells; assay: Antiproliferation assay (MTT), MCF-7; type: cell-based; conditions: Homo sapiens, MCF7, 360 h, 15-day treatment, read-out: MCF-7 EC50 (antiproliferative)
# Procedure: as §1, §2
# [10] = tested on: Molm-13 leukemia cells; assay: Antiproliferation assay (XTT), Molm-13; type: cell-based; conditions: Homo sapiens, MOLM-13, 360 h; 15-day treatment; MLL-rearranged leukemia; read-out: Molm-13 EC50 (antiproliferative)
# Procedure: as §1, §2
# [11] = tested on: MV4-11 leukemia cells; design: method as in PMID 22924785; conditions: read-out: MV4-11 proliferation EC50; cited from earlier work
# [12] = tested on: H3K79 methylation in MV4-11 cells; design: method as in PMID 23795283; conditions: read-out: IC50 for inhibition of H3K79 methylation; cited from earlier work
# [13] = tested on: Molm-13 leukemia cells; design: method as in PMID 22924785; conditions: read-out: Molm-13 proliferation EC50; cited from earlier work
EC50 [1] [µM],IC50 [2] [µM],selectivity for LSD1 inhibition over MAO-A and -B [2] [fold],Selectivity index for LSD1 [2],EC50 [3] [µM],IC50 [4] [µM],EC50 [5] [µM],EC50 [6] [µM],IC50 [7] [µM],EC50 [8] [µM],EC50 [9] [µM],EC50 [10] [µM],fold less potent than compound 2 against LSD1 [2],Compound,EC50 [11] [µM],IC50 [12] [µM],EC50 [13] [µM]
0.02,0.035,> 200,>208,> 50,16.3,0.48,29.9,7.3,> 50,13.5,0.18,–,CN1CCN(C(=O)CNC2CC2c2ccc(Br)cc2)CC1 (centres unmarked) [Compound 3],–,–,–
1.4,5.3,–,<0.58,17.5,3.1,–,> 50,0.42,> 50,> 50,12,~ 70 fold,NC1CC1c1ccc(-c2ccc(F)nc2)cc1 (centres unmarked) [Compound 4],–,–,–
–,–,–,–,–,–,–,–,–,–,–,–,–,CC(C)N(CCCNC(=O)Nc1ccc(C(C)(C)C)cc1)CC1OC(n2cnc3c(N)ncnc32)C(O)C1O (centres unmarked) [SYC-522],~4,~0.2,~7
